Several values for one entry are separate records, joined by “and”; a condition that tells them apart may be missing. Identical values can stand only once. Counter-ions that a name gives are not always drawn.
Key:
[1] = tested on: Secretion of Gastric Juice; assay: Effect for Secretion of Gastric Juice (pylorus-ligated rats, Shay method); assay type: in vivo, male rats of SD strain; conditions: rat, 100 mg/Kg, into the duodenum; for Amount of gastric juice Vol. / Free Acid Output / Total Acid Output: 4 hours; for Amount of gastric juice Vol.: control 1.78 ± 0.26; for Free Acid Output: control 133.2 ± 32.7; for Total Acid Output: control 154.0 ± 36.0; for suppression of the amount of the gastric juice / suppression of the free acid output / suppression of the total acid output: vs control group
Description: (§1) The compounds to be tested were suspended in 5% serous gum arabic solution, so as to adjust their concentration to 0.5 ml/100 g B.W. for oral administration, or 0.2 ml/100 g B.W. for duodenum administration. Indomethacin, [1-(p-chlorobenzoyl)-5-methoxy-2-methylindole-3-acetic acid] for control was suspended in 5% serous gum arabic solution, so as to adjust its concentration to 0.5 ml/100 g B.W.
The solutions of the compounds to be tested were adjusted to pH 5.0, and administered into the duodenum. The bellys were closed. After 4 hours, the animals were slaughtered by anesthesia, and the gastric juice was collected.
The volume of the gastric juice was measured and titrated by N/50 NaOH solution with Topfer indicator and phenolphthalein indicator, to determine the free acid output the total acid output, respectively.
The compounds to be tested were administered into the duodenum immediately after ligaturing the pylorus.
The medicine solution was adjusted to pH 5.0 with N--NaOH solution.

[2] = tested on: Ligature Ulcer of the Pylorus; assay: Effect on Ligature Ulcer of the Pylorus; assay type: in vivo, male rats of SD strain; conditions: rat, 300 mg/Kg, into the duodenum, 17 hours
Description: as §1
According to the method by H. Shay et al. [Gastroenterology 5, 43 (1945)], male rats (weighing about 320 g) of SD strain were fasted for 24 hours, and then incised the belly under the ether rausch anesthesia, and finally ligatured the pyloruses. The solution of compounds to be tested were adjusted to pH 5.0, and administered into the duodenum. The bellys were closed. After subsequent 17 hours, the animals were slaughtered by the anesthesia, and their stomaches were extirpated. More particularly, the stomaches were incised along the greater curvature. The ulcer generated at forestomach was ranged as shown in the following. The total of the ranking was named as the ulcer index.
Greater than 1 mm, but not greater
Greater than 3 mm, but not greater
Greater than 5 mm, but not greater

[3] = tested on: Indomethacin-induced Ulcer; assay: Effects on Indomethacin-induced Ulcer; assay type: in vivo, Wister strain male rats; conditions: rat, oral, 30 minutes prior to Indomethacin 40 mg/Kg; for Percentage of inhibition (ulcer index): vs control; for Ulcer index: control 9.30 ± 3.09; for Percentage of Incidence of Ulcer: control 75
Description: as §1
Wister strain male rats (weighing about 230 g) were subjected to the fast for 24 hours. 40 mg/Kg of the Indomethacin were orally administered, respectively. After 4 hours from the administration, the animals were slaughtered and their stomaches were extirpated. The subsequent procedures were carried out in accordance with the pharmacological experiment 3.
The compounds to be tested were orally administered 30 minutes prior to the administration of Indomethacin.

[4] = tested on: Immersive Stress-induced Ulcer; assay: Inhibitory Effects on the Immersive Stress-induced Ulcer; assay type: in vivo, female rats of SD strain; conditions: rat, oral; for Percentage of inhibition (ulcer index): vs control; for Ulcer index: control 80.4 ± 3.5
Description: as §1
According to the method by K. Takagi et al. [Jap. J. Pharmacol. 18, 9 )1968)], female rats (weighing about 160 g) of SD strain were put in a cage made of wire gauze for restraint, dipped in a water bath at the temperature of 23° C. so as to cover the lower end of their breast bones, and allowed to stand for 20 hours. The animals were then slaughtered by the anesthesia, and their stomaches were extirpated. The stomaches were inflated with 10 ml of physiological saline water, and dipped in 0.5% neutral formalin solution for about 5 minutes according to the method by D. A. Brodie et al [Gastroenterology 38, 354-360 (1960)]. The stomaches were then incised along the greater curvature. The length of each ulcer (erosion) generated at adeno-stomach was measured. The total of said lengthes were assigned as the ulcer index.
The compounds to be tested were orally administered prior to the immersion.

[5] = tested on: Cold-restraint Stress Induced Ulcer; assay: Inhibitory Effects on Cold-restraint Stress Induced Ulcer; assay type: in vivo, female rats of SD strain; conditions: rat, oral; for Percentage of inhibition (ulcer index) / Ulcer index: 30 minutes prior to stress; for Percentage of inhibition (ulcer index): vs control, hydrobromide; for Ulcer index: control 14.8 ± 1.7
Description: as §1
This experiment was effected by referring to the method by S. Dai et al. [Eur. J. Pharmaco. 26, 15-21 (1974)] and the method by M. M. Goldenberg et al. [Am. J. Dic. Dis 19, 4, 353-360 (1974)].
Female rats of SD strain (weighing about 180 g) were restrained in a cage made of wire gauze, and the cage was allowed to stand in a room at the low temperature at 4° C. for two hours. After subsequent two hours, the animals were slaughtered. The stomaches were extirpated. Thereafter, the subsequent procedure was carried out in accordance with the pharmacological experiment 3.
The compounds to be tested were orally administered 30 minutes prior to exposure of the stress.

In the case of `C=CCSc1nc(N)c2c(C)coc2n1` [C, 2-Allylmercapto-4-amino-5-methyl-furo[2, 3d]pyrimidine], the “Amount of gastric juice Vol.” value [1] is reported as 0.49 ± 0.11 (ml)/100g B.W, the “Free Acid Output” value [1] is reported as 18.2 ± 7.1 μEq/100g B.W and the “Total Acid Output” value [1] is reported as 33.1 ± 7.6 μEq/100g B.W. The “suppression of the amount of the gastric juice” value [1] was “over 54%”, the “suppression of the free acid output” value [1] was “over 69%” and the “suppression of the total acid output” value [1] was “over 57%”.

For `CSc1nc(N)c2c(C)coc2n1` [B, 2-Methylmercapto-4-amino-5-methyl-furo[2, 3d]pyrimidine hydrobromide], the “Amount of gastric juice Vol.” value [1] was 0.51 ± 0.09 (ml)/100g B.W, the “Free Acid Output” value [1] was 16.5 ± 5.5 μEq/100g B.W and the “Total Acid Output” value [1] was 37.8 ± 5.6 μEq/100g B.W. The “suppression of the amount of the gastric juice” value [1] was “over 54%”, the “suppression of the free acid output” value [1] was “over 69%” and the “suppression of the total acid output” value [1] was “over 57%”.

In the case of `CCSc1nc(N)c2c(C)coc2n1` [Compound A, 2-Ethylmercapto-4-amino-5-methyl-furo[2, 3d]pyrimidine hydrobromide], the “Percentage of inhibition (ulcer index)” value ([2]; vs control) is reported as 100%, the Ulcer index ([2]; control 54 ± 14) is reported as 0 ± 0 mm and the “Percentage of inhibition (ulcer index)” value ([3]; 25 mg/Kg) is reported as 82%. The “Ulcer index” value ([3]; 25 mg/Kg) was 1.67 ± 1.00 mm, the “Percentage of Incidence of Ulcer” value ([3]; 25 mg/Kg) was 38% and the “Percentage of inhibition (ulcer index)” value ([3]; 50 mg/Kg) was 100%. For the same compound, the “Ulcer index” value ([3]; 50 mg/Kg) was 0 ± 0 mm, the “Percentage of Incidence of Ulcer” value ([3]; 50 mg/Kg) was 0% and the “Percentage of inhibition (ulcer index)” value ([3]; 100 mg/Kg) was 98%. For the same compound, the “Ulcer index” value ([3]; 100 mg/Kg) was 0.20 ± 0.19 mm, the “Percentage of Incidence of Ulcer” value ([3]; 100 mg/Kg) was 13% and the “Amount of gastric juice Vol.” value [1] was 0.81 ± 0.15 (ml)/100g B.W. The “Free Acid Output” value [1] was 41.0 ± 16.6 μEq/100g B.W, the “Total Acid Output” value [1] was 65.8 ± 20.4 μEq/100g B.W and the “suppression of the amount of the gastric juice” value [1] was “over 54%”. The “suppression of the free acid output” value [1] was “over 69%”, the “suppression of the total acid output” value [1] was “over 57%” and the “Percentage of inhibition (ulcer index)” value ([4]; 150 mg/Kg) was 21.0%. The Ulcer index ([4]; 150 mg/Kg) was 63.5 ± 6.5 mm, the “Percentage of inhibition (ulcer index)” value ([4]; 300 mg/Kg) was 38.7% and the Ulcer index ([4]; 300 mg/Kg) was 49.3 ± 3.4 mm. The “dose dependence of ulcer inhibition” value ([4]; 150 and 300 mg/Kg) was “dose dependent”, the “Percentage of inhibition (ulcer index)” value ([5]; 50 mg/Kg, 50 mg/kg) was 78.4% and 78% and the Ulcer index ([5]; 50 mg/Kg) was 3.2 ± 1.0 mm. The “Percentage of inhibition (ulcer index)” value ([5]; 100 mg/Kg, 100 mg/kg) was 85.8% and 86%, the Ulcer index ([5]; 100 mg/Kg) was 2.1 ± 0.6 mm and the “dose dependence of ulcer inhibition” value ([5]; 50 and 100 mg/Kg) was “dose dependent”.

Reference: patent publication US4180577A, “Furo[2, 3d]pyrimidine derivatives and anti-ulcer containing the same” (Eisai Co., Ltd., priority 1974, dated 1979)
